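Results reflect a 48-hour exposure of cells in 96-well plates to compound at five concentrations. Here, GI50 denotes the concentration required for 50% inhibition of growth.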 The source made the active and inactive calls. Rule as the data show it: active = GI50 up to about 1.1 µM and inactive = higher.
Assays:
Experiment in all cases: growth of human tumour cells (NCI), 48 h
IGROV-1 = tested on: IGROV-1
SK-MEL-2 = tested on: SK-MEL-2
DMS-273 = tested on: DMS-273
786-0 = tested on: 786-0
DMS-114 = tested on: DMS-114
SK-MEL-28 = tested on: SK-MEL-28
OVCAR-5 = tested on: OVCAR-5
XF498 = tested on: XF498
M19-MEL = tested on: M19-MEL
CAKI-1 = tested on: CAKI-1
NCI-H522 = tested on: NCI-H522
CCRF-CEM = tested on: CCRF-CEM
COLO 205 = tested on: COLO 205
HOP-92 = tested on: HOP-92
SNB-75 = tested on: SNB-75
KM-20L2 = tested on: KM-20L2
SW-620 = tested on: SW-620
Malme-3M = tested on: Malme-3M
ACHN = tested on: ACHN
SF-295 = tested on: SF-295
TK-10 = tested on: TK-10
OVCAR-8 = tested on: OVCAR-8
UACC-257 = tested on: UACC-257
NCI-H23 = tested on: NCI-H23
LOX IMVI = tested on: LOX IMVI
HCT-116 = tested on: HCT-116
SK-OV-3 = tested on: SK-OV-3
HOP-18 = tested on: HOP-18
EKVX = tested on: EKVX
M14 = tested on: M14
HCC 2998 = tested on: HCC 2998
UACC-62 = tested on: UACC-62
OVCAR-3 = tested on: OVCAR-3
KM12 = tested on: KM12
SF-539 = tested on: SF-539
K562 = tested on: K562
RPMI-8226 = tested on: RPMI-8226
LXFL 529 = tested on: LXFL 529
UO-31 = tested on: UO-31
HOP-62 = tested on: HOP-62
DLD-1 = tested on: DLD-1
SF-268 = tested on: SF-268
MOLT-4 = tested on: MOLT-4
SNB-19 = tested on: SNB-19
HL-60 = tested on: HL-60
OVCAR-4 = tested on: OVCAR-4
A498 = tested on: A498
NCI-H226 = tested on: NCI-H226
U-251 = tested on: U-251
A549 = tested on: A549
SNB-78 = tested on: SNB-78
SR = tested on: SR
HCT-15 = tested on: HCT-15
HT-29 = tested on: HT-29
SK-MEL-5 = tested on: SK-MEL-5
RXF 393 = tested on: RXF 393
NCI-H460 = tested on: NCI-H460
SN12C = tested on: SN12C

Compound: COc1ccc(-c2c3ccccc3c(-c3ccc(OC)cc3)c3ccccc23)cc1
- GI50 (IGROV-1): > 100 µM (inactive)
- GI50 (SK-MEL-2): > 100 µM (inactive)
- GI50 (DMS-273): > 100 µM (inactive)
- GI50 (786-0): > 100 µM (inactive)
- GI50 (DMS-114): > 100 µM (inactive)
- GI50 (SK-MEL-28): > 100 µM (inactive)
- GI50 (OVCAR-5): > 100 µM (inactive)
- GI50 (XF498): > 100 µM (inactive)
- GI50 (M19-MEL): > 100 µM (inactive)
- GI50 (CAKI-1): > 100 µM (inactive)
- GI50 (NCI-H522): > 100 µM (inactive)
- GI50 (CCRF-CEM): > 100 µM (inactive)
- GI50 (COLO 205): > 100 µM (inactive)
- GI50 (HOP-92): > 100 µM (inactive)
- GI50 (SNB-75): 29.5 µM (inactive)
- GI50 (KM-20L2): > 100 µM (inactive)
- GI50 (SW-620): > 100 µM (inactive)
- GI50 (Malme-3M): > 100 µM (inactive)
- GI50 (ACHN): > 100 µM (inactive)
- GI50 (SF-295): > 100 µM (inactive)
- GI50 (TK-10): > 100 µM (inactive)
- GI50 (OVCAR-8): > 100 µM (inactive)
- GI50 (UACC-257): > 100 µM (inactive)
- GI50 (NCI-H23): > 100 µM (inactive)
- GI50 (LOX IMVI): > 100 µM (inactive)
- GI50 (HCT-116): > 100 µM (inactive)
- GI50 (SK-OV-3): > 100 µM (inactive)
- GI50 (HOP-18): > 100 µM (inactive)
- GI50 (EKVX): > 100 µM (inactive)
- GI50 (M14): > 100 µM (inactive)
- GI50 (HCC 2998): > 100 µM (inactive)
- GI50 (UACC-62): > 100 µM (inactive)
- GI50 (OVCAR-3): > 100 µM (inactive)
- GI50 (KM12): > 100 µM (inactive)
- GI50 (SF-539): > 100 µM (inactive)
- GI50 (K562): > 100 µM (inactive)
- GI50 (RPMI-8226): > 100 µM (inactive)
- GI50 (LXFL 529): > 100 µM (inactive)
- GI50 (UO-31): > 100 µM (inactive)
- GI50 (HOP-62): > 100 µM (inactive)
- GI50 (DLD-1): > 100 µM (inactive)
- GI50 (SF-268): > 100 µM (inactive)
- GI50 (MOLT-4): > 100 µM (inactive)
- GI50 (SNB-19): > 100 µM (inactive)
- GI50 (HL-60): > 100 µM (inactive)
- GI50 (OVCAR-4): > 100 µM (inactive)
- GI50 (A498): > 100 µM (inactive)
- GI50 (NCI-H226): > 100 µM (inactive)
- GI50 (U-251): > 100 µM (inactive)
- GI50 (A549): > 100 µM (inactive)
- GI50 (SNB-78): > 100 µM (inactive)
- GI50 (SR): > 100 µM (inactive)
- GI50 (HCT-15): > 100 µM
- GI50 (HT-29): > 100 µM (inactive)
- GI50 (SK-MEL-5): > 100 µM (inactive)
- GI50 (RXF 393): > 100 µM (inactive)
- GI50 (NCI-H460): > 100 µM (inactive)
- GI50 (SN12C): > 100 µM (inactive)

Compound: O=c1cc(-c2ccccc2)oc2cc(OCCCOc3ccc4c(=O)cc(-c5ccccc5)oc4c3)ccc12
- GI50 (IGROV-1): > 100 µM (inactive)
- GI50 (SK-MEL-2): > 100 µM (inactive)
- GI50 (DMS-273): > 100 µM (inactive)
- GI50 (786-0): > 100 µM (inactive)
- GI50 (DMS-114): > 100 µM (inactive)
- GI50 (SK-MEL-28): > 100 µM (inactive)
- GI50 (OVCAR-5): > 100 µM (inactive)
- GI50 (XF498): > 100 µM (inactive)
- GI50 (M19-MEL): > 100 µM (inactive)
- GI50 (CAKI-1): > 100 µM (inactive)
- GI50 (NCI-H522): > 100 µM (inactive)
- GI50 (CCRF-CEM): > 100 µM (inactive)
- GI50 (COLO 205): > 100 µM (inactive)
- GI50 (HOP-92): > 100 µM (inactive)
- GI50 (SNB-75): 47.2 µM (inactive)
- GI50 (KM-20L2): > 100 µM (inactive)
- GI50 (SW-620): > 100 µM (inactive)
- GI50 (Malme-3M): > 100 µM (inactive)
- GI50 (ACHN): > 100 µM (inactive)
- GI50 (SF-295): > 100 µM (inactive)
- GI50 (TK-10): > 100 µM (inactive)
- GI50 (OVCAR-8): > 100 µM (inactive)
- GI50 (UACC-257): > 100 µM (inactive)
- GI50 (NCI-H23): > 100 µM (inactive)
- GI50 (LOX IMVI): > 100 µM (inactive)
- GI50 (HCT-116): > 100 µM (inactive)
- GI50 (SK-OV-3): > 100 µM (inactive)
- GI50 (HOP-18): > 100 µM (inactive)
- GI50 (EKVX): > 100 µM (inactive)
- GI50 (M14): > 100 µM (inactive)
- GI50 (HCC 2998): > 100 µM (inactive)
- GI50 (UACC-62): > 100 µM (inactive)
- GI50 (OVCAR-3): > 100 µM (inactive)
- GI50 (KM12): > 100 µM (inactive)
- GI50 (SF-539): > 100 µM (inactive)
- GI50 (K562): > 100 µM (inactive)
- GI50 (RPMI-8226): > 100 µM (inactive)
- GI50 (LXFL 529): > 100 µM (inactive)
- GI50 (HOP-62): > 100 µM (inactive)
- GI50 (DLD-1): > 100 µM (inactive)
- GI50 (MOLT-4): > 100 µM (inactive)
- GI50 (SNB-19): > 100 µM (inactive)
- GI50 (HL-60): > 100 µM (inactive)
- GI50 (OVCAR-4): > 100 µM (inactive)
- GI50 (NCI-H226): > 100 µM (inactive)
- GI50 (U-251): > 100 µM (inactive)
- GI50 (A549): > 100 µM (inactive)
- GI50 (SNB-78): > 100 µM (inactive)
- GI50 (SR): > 100 µM (inactive)
- GI50 (HCT-15): > 100 µM
- GI50 (HT-29): > 100 µM (inactive)
- GI50 (SK-MEL-5): > 100 µM (inactive)
- GI50 (RXF 393): > 100 µM (inactive)
- GI50 (NCI-H460): > 100 µM (inactive)
- GI50 (SN12C): > 100 µM (inactive)

Compound: CCCN(CCC)C(=O)Cc1c2n(c3ccccc13)Cc1ccccc1-2
- GI50 (SK-MEL-2): 94.4 µM (inactive)
- GI50 (DMS-273): 29.1 µM (inactive)
- GI50 (786-0): 57 µM (inactive)
- GI50 (DMS-114): 23.6 µM (inactive)
- GI50 (SK-MEL-28): > 100 µM (inactive)
- GI50 (XF498): > 100 µM (inactive)
- GI50 (M19-MEL): 56.6 µM (inactive)
- GI50 (CAKI-1): 30.1 µM (inactive)
- GI50 (NCI-H522): 40 µM (inactive)
- GI50 (CCRF-CEM): > 100 µM (inactive)
- GI50 (COLO 205): 95.3 µM (inactive)
- GI50 (HOP-92): 5 µM (inactive)
- GI50 (SNB-75): 6.62 µM (inactive)
- GI50 (KM-20L2): > 100 µM (inactive)
- GI50 (SW-620): > 100 µM (inactive)
- GI50 (Malme-3M): 58.9 µM (inactive)
- GI50 (ACHN): 12 µM (inactive)
- GI50 (SF-295): 33.8 µM (inactive)
- GI50 (TK-10): > 100 µM (inactive)
- GI50 (OVCAR-8): > 100 µM (inactive)
- GI50 (UACC-257): > 100 µM (inactive)
- GI50 (NCI-H23): 45.7 µM (inactive)
- GI50 (LOX IMVI): 83.4 µM (inactive)
- GI50 (HCT-116): 28.8 µM (inactive)
- GI50 (SK-OV-3): > 100 µM (inactive)
- GI50 (HOP-18): > 100 µM (inactive)
- GI50 (EKVX): > 100 µM (inactive)
- GI50 (M14): > 100 µM (inactive)
- GI50 (HCC 2998): > 100 µM (inactive)
- GI50 (UACC-62): 21.1 µM (inactive)
- GI50 (OVCAR-3): > 100 µM (inactive)
- GI50 (KM12): > 100 µM (inactive)
- GI50 (SF-539): > 100 µM (inactive)
- GI50 (K562): > 100 µM (inactive)
- GI50 (RPMI-8226): 59 µM (inactive)
- GI50 (LXFL 529): 42.4 µM (inactive)
- GI50 (UO-31): 35.1 µM (inactive)
- GI50 (HOP-62): > 100 µM (inactive)
- GI50 (DLD-1): 63.4 µM (inactive)
- GI50 (SF-268): > 100 µM (inactive)
- GI50 (MOLT-4): > 100 µM (inactive)
- GI50 (SNB-19): > 100 µM (inactive)
- GI50 (HL-60): 28.8 µM (inactive)
- GI50 (OVCAR-4): 49.5 µM (inactive)
- GI50 (NCI-H226): > 100 µM (inactive)
- GI50 (U-251): > 100 µM (inactive)
- GI50 (A549): 27.9 µM (inactive)
- GI50 (SNB-78): > 100 µM (inactive)
- GI50 (SR): 33.1 µM (inactive)
- GI50 (HCT-15): > 100 µM
- GI50 (HT-29): 61.8 µM (inactive)
- GI50 (SK-MEL-5): 29.6 µM (inactive)
- GI50 (RXF 393): 24.4 µM (inactive)
- GI50 (NCI-H460): 63.7 µM (inactive)
- GI50 (SN12C): > 100 µM (inactive)

From ChEMBL document CHEMBL1201862, “PubChem BioAssay data set” (2004)
